{"source": "patent US20230372542A1", "about": "“COMPOSITION AND METHODS FOR MODULATING TCF4 GENE EXPESSION AND TREATING PITT HOPKINS SYNDROME” (The Regents of the University of California, priority 2020, published 2023)", "key": {"[1]": {"tested_on": "Wnt/β-catenin signaling pathway", "assay": "TOP-Flash luciferase reporter Wnt functional assay in NPCs", "assay_type": "cell-based, human", "conditions": "PTHS NPCs; CHIR99021 (FIG. 16D)", "source_text": "TOP-Flash luciferase reporter Wnt functional assay. For assessing levels of Wnt signaling, 70% confluent cultures of NPCs in 24-well plates (with Neural Progenitor Medium from StemCell Technologies) were transfected with the M50 Super 8×TOPFlash plasmid (Addgene #12456; [http:/]/n2t.net/addgene:12456; RRID:Addgene_12456; referred to as TOP-Flash luciferase reporter plasmid), which is used to assess β-catenin-mediated transcriptional activation. This plasmid contains a minimal TA viral promoter driving the expression of a firefly luciferase gene preceded by seven binding sites ([…]; SEQ ID NO:1) for TCF/LEF (Veeman et al., 2003), not to be confused with TCF4. Control NPCs were transfected with M51 Super8×TOPflash plasmids, which have mutant TCF/LEF binding sites (Addgene plasmid #12457; [http:/]/n2t.net/addgene:12457; RRID:Addgene_12457).\nTransfection was performed using the Amaxa Nucleofaction Mouse Neural Stem Cell Nucleofector kit for NPCs (Lonza), using the manufacturer's recommendations. After 24 h, medium was replenished and the luciferase assay was performed using the Pierce Firefly Luciferase Flash Assay Kit (Thermo Fisher Scientific) on a sample of 50,000 cells, using a Synergy microplate reader (BioTek Instruments). […] Activity levels were expressed as arbitrary units normalized against the mean activity in the respective controls. […]"}, "CtOs or sPOs": {"tested_on": "CtOs or sPOs", "assay": "Wnt signaling manipulation in brain organoids (size, immunostaining, single cell RNA-Seq)", "assay_type": "cell-based, human", "protocol": "Immunofluorescence staining. After being cultured in vitro for the required amount of time, CtOs and sPOs were fixed with 4% paraformaldehyde for 4-8 h at 4° C. and cryoprotected in 30% sucrose for 12 h. Organoids were then embedded in TissueTek (Leica Microsystems) and sectioned on a Leica VT1000S cryostat to produce 20 μm sections. For staining, slides were air dried for 10 min, permeabilized in […] for 2 min, and blocked with […] for 1 h at 25° C., followed by incubation with primary antibodies in the same solutions, for 16 h at 4° C. […] After further washes in 1×PBS, slides were counterstained with DAPI solution (1 μg/mL) for 45 min and mounted with ProLong Gold. All images were taken using a Zeiss fluorescence microscope equipped with Apotome (Axio Observer Apotome, Zeiss). For projections of z series stacked images of DCX-stained organoids, the maximum intensity feature of ZEN software (Zeiss) was used, after collecting 10 optical slices per section. For p16^INK4a staining, antigen retrieval was performed by incubating the slides at 60° C. for 10 min in 1× Universal HIER antigen retrieval reagent (Abcam; ab208572), followed by regular immunostaining. For counting SOX2+ cells after p16^INK4a co-staining (FIG. 15J), raw unprocessed images were used, and defined strongly stained cells as those which had average pixel intensity between the upper third quartile and the maximum pixel intensity in each image. Remaining SOX2+ cells were considered weakly stained.\nFor quantification of cell types in organoid sections, 4 random 100×100 μm regions of interest (ROI) were sampled across each imaged section. The mean number of labeled cells per sample was calculated by first averaging the number of labeled cells in each ROI to produce a mean value of labeled cells per section, and then averaging these mean values across all sections for each subject. […] The average percentage of pixels according to these rules was computed over four 100×100 μm ROIs per section and 6 sections per subject.\nOrganoid single cell RNA sequencing analysis. CtOs and sPOs were dissociated to produce a single cell suspension via a combination of mechanical dissociation with forceps and enzymatic digestion with Accutase for 10 min. For each library, a total of 15 organoids were dissociated and the resulting cells were pooled and subsequently filtered to isolate single cells for RNA sequencing analysis on the same day. Dissociated cells were pelleted (3 min, 100× g, 4° C.) and resuspended in 10 mL of Neurobasal medium. […] Single cell RNA-seq libraries were prepared using the Chromium Single Cell 3′ v3 Library kit (10× Genomics) according to the manufacturer's protocol. Approximately 20,000 cells were loaded per sample on the Chromium chip. All steps, including GEM (Gel beads in emulsion) preparation, reverse transcription, PCR amplification, and Illumina library construction were carried out on a T100 thermal cycler (Bio-Rad). cDNA extracted from GEMs was cleaned up using MyOne Silane Beads (Thermo Fisher Scientific), PCR-amplified for a total of 10 cycles, and then purified using SPRIselect Reagent Kit (B23317, Beckman Coulter). Next, the cDNA pool was enzymatically fragmented for each library and a double size selection was performed using the SPRIselect Reagent Kit. Finally, Illumina adapters were ligated to prepare libraries for sequencing, followed by another round of double size selection with the SPRIselect Reagent Kit. […] Illumina libraries were quantified using Qubit dsDNA HS Assay Kit (Thermo Fisher Scientific) and size quality control was performed on a High Sensitivity D1000 tapestation (Agilent)."}}, "data": [{"smiles": "Cc1c[nH]c(-c2cnc(NCCNc3ccc(C#N)cn3)nc2-c2ccc(Cl)cc2Cl)n1", "note": "[CHIR99021]", "values": [{"measurement": "Wnt signaling activity (TOP-Flash)", "setting": "[1]", "value": "increased"}, {"measurement": "percentage of subpallial-type neural progenitors", "setting": "CtOs or sPOs; CHIR99021-treated CtOs (FIG. 16H)", "value": "increased percentage"}, {"measurement": "progenitor population (single cell RNA-Seq)", "setting": "CtOs or sPOs; CHIR99021-treated PTHS CtOs and sPOs (FIGS. 16G-H)", "value": "increase in the progenitor population"}, {"measurement": "neural rosettes", "setting": "CtOs or sPOs; PTHS CtOs, CHIR99021", "value": "reappearance of conspicuous neural rosettes"}, {"measurement": "NPC content (SOX2+ cells)", "setting": "CtOs or sPOs; PTHS CtOs, CHIR99021 1 μM (FIG. 9K)", "value": "significant increase"}, {"measurement": "organoid size", "setting": "CtOs or sPOs; PTHS CtOs, CHIR99021 1 μM (FIG. 16F)", "value": "significant increase in organoid size"}, {"measurement": "TCF4 levels in neural progenitors of the organoid's 3D structure", "setting": "CtOs or sPOs; PTHS sPOs, CHIR (FIG. 16J)", "value": "do not exhibit an increase in TCF4 levels"}, {"measurement": "expression of subpallial markers (GAD1, GAD2)", "setting": "CtOs or sPOs; parent and PTHS CHIR99021-treated organoids (FIG. 16I)", "value": "higher"}, {"measurement": "progenitor content", "setting": "CtOs or sPOs; parent organoids, CHIR (FIG. 9K)", "value": "does not lead to an increase"}, {"measurement": "organoid size", "setting": "CtOs or sPOs; parent organoids, CHIR (FIG. 16F)", "value": "does not lead to an increase"}]}]}
